Laboratory results reported in PubChem BioAssay AID248 (DTP/NCI, 2004).
Values joined by “and” are separate entries in the source; they are usually repeats but may differ in a detail not shown here. Equal values may be shown once. Toxic doses and inconclusive results are not listed. Rule as the data show it: active = T/C of 150% or more; inactive = T/C below 125%.

System: L1210 leukemia ip in BDF1 mice, survival T/C
Assay: NCI In Vivo Anticancer Drug Screen. Data for tumor model L1210 Leukemia (intraperitoneal) in B6D2F1 (BDF1) mice
Conditions: endpoint: mean survival time, higher = longer survival
Procedure, shortened: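 In this screen, tumor-bearing mice given compound are compared to those given vehicle, and their survival values are reported as a treated-to-control quotient.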

[1] = dose: 12.5 mg/kg/injection, schedule: Q04DX003 (ip), vehicle: Klucel (hydroxypropylcellulose) (HPC)
[2] = dose: 25.0 mg/kg/injection, schedule: Q04DX003 (ip), vehicle: Klucel (hydroxypropylcellulose) (HPC)
[3] = dose: 50.0 mg/kg/injection, schedule: Q04DX003 (ip), vehicle: Klucel (hydroxypropylcellulose) (HPC)
[4] = dose: 100.0 mg/kg/injection, schedule: Q04DX003 (ip), vehicle: Klucel (hydroxypropylcellulose) (HPC)
[5] = dose: 200.0 mg/kg/injection, schedule: Q04DX003 (ip), vehicle: Klucel (hydroxypropylcellulose) (HPC)
[6] = dose: 50.0 mg/kg/injection, schedule: Q01DX009 (ip), vehicle: Klucel (hydroxypropylcellulose) (HPC)
[7] = dose: 100.0 mg/kg/injection, schedule: Q01DX009 (ip), vehicle: Klucel (hydroxypropylcellulose) (HPC)
[8] = dose: 200.0 mg/kg/injection, schedule: Q01DX009 (ip), vehicle: Klucel (hydroxypropylcellulose) (HPC)
[9] = dose: 50.0 mg/kg/injection, schedule: Q01DX001 (ip), vehicle: saline
[10] = dose: 100.0 mg/kg/injection, schedule: Q01DX001 (ip), vehicle: saline
[11] = dose: 200.0 mg/kg/injection, schedule: Q01DX001 (ip), vehicle: saline
[12] = dose: 400.0 mg/kg/injection, schedule: Q01DX001 (ip), vehicle: saline
[13] = dose: 100.0 mg/kg/injection, schedule: Q04DX003 (ip), vehicle: saline
[14] = dose: 200.0 mg/kg/injection, schedule: Q04DX003 (ip), vehicle: saline
[15] = dose: 400.0 mg/kg/injection, schedule: Q04DX003 (ip), vehicle: saline
[16] = dose: 100.0 mg/kg/injection, schedule: Q04DX003 (ip), vehicle: saline with Tween-80
[17] = dose: 200.0 mg/kg/injection, schedule: Q04DX003 (ip), vehicle: saline with Tween-80
[18] = dose: 100.0 mg/kg/injection, schedule: Q04DX002 (ip), vehicle: saline with Tween-80
[19] = dose: 200.0 mg/kg/injection, schedule: Q04DX002 (ip), vehicle: saline with Tween-80

Measured: T/C

CCC1(O)C(=O)OCc2c1cc(C)[nH]c2=O (stereo not drawn)
inactive: dose: 6.25 mg/kg/injection, schedule: Q04DX003 (ip), vehicle: Klucel (hydroxypropylcellulose) (HPC) 86 % of control | [1] 94 % of control | [2] 86 % of control | [3] 89 % of control | [4] 91 % of control | [5] 86 % of control

Cc1cc(C)c(C(=O)C=O)c(C)c1
inactive: [6] 101 % of control | [7] 100 % of control | [4] 104 % of control | [8] 95 % of control | [5] 107 % of control

O=C(N/N=C\c1cc(=O)[nH]c(=O)[nH]1)c1ccncc1
inactive: [9] 90 % of control | [10] 95 % of control | [11] 95 % of control

O=C1OCC(O)=C1Cc1ccccc1
inactive: [10] 101 % of control | [11] 89 % of control | [12] 94 % of control

CC1(C#N)CCc2c(ccc3ccccc23)C1=O (stereo not drawn)
inactive: dose: 100.0 mg/kg/injection, schedule: Q01DX009 (ip), vehicle: saline 95 % of control | [13] 96 % of control | dose: 200.0 mg/kg/injection, schedule: Q01DX009 (ip), vehicle: saline 95 % of control | [14] 94 % of control | [15] 101 % of control

N#CCc1c(Cl)sc(Cl)c1CC#N
inactive: [16] 88 % of control | [17] 88 % of control

CNC(=O)N(C)N
inactive: dose: 12.5 mg/kg/injection, schedule: Q01DX009 (ip), vehicle: saline 97 % of control | dose: 25.0 mg/kg/injection, schedule: Q01DX009 (ip), vehicle: saline 95 % of control | dose: 50.0 mg/kg/injection, schedule: Q01DX009 (ip), vehicle: saline 119 % of control

Cc1cc(OCCOC(=O)Nc2ccccc2F)cc(C)c1Cl
inactive: [7] 93 % of control | [8] 101 % of control | dose: 400.0 mg/kg/injection, schedule: Q01DX009 (ip), vehicle: Klucel (hydroxypropylcellulose) (HPC) 103 % of control

COC(=O)c1ccccn1
inactive: [18] 100 % of control | [19] 107 % of control

CC(=O)Nc1ccc2c(c1)Cc1cc(Cl)ccc1-2
inactive: [9] 105 % of control | [10] 100 % of control | [11] 103 % of control | [12] 105 % of control

O=NC1C(Cl)C2CC1C1C(Br)C(Br)CC21 (stereo not drawn)
inactive: [1] 100 % of control | dose: 25.0 mg/kg/injection, schedule: Q01DX009 (ip), vehicle: Klucel (hydroxypropylcellulose) (HPC) 93 % of control | [2] 102 % of control | dose: 50.0 mg/kg/injection, schedule: Q01DX001 (ip), vehicle: Klucel (hydroxypropylcellulose) (HPC) 95 % of control | [6] 93 % of control | [3] 100 % of control | dose: 100.0 mg/kg/injection, schedule: Q01DX001 (ip), vehicle: Klucel (hydroxypropylcellulose) (HPC) 92 % of control | [7] 88 % of control | dose: 150.0 mg/kg/injection, schedule: Q01DX009 (ip), vehicle: saline 90 % of control | dose: 200.0 mg/kg/injection, schedule: Q01DX001 (ip), vehicle: Klucel (hydroxypropylcellulose) (HPC) 89 % of control | dose: 335.0 mg/kg/injection, schedule: Q01DX009 (ip), vehicle: saline 94 % of control

Cc1cc2c([N+](=O)[O-])c3ccc(Cl)nn3c2n[n+]1[O-]
inactive: dose: 62.5 mg/kg/injection, schedule: Q04DX002 (ip), vehicle: Klucel (hydroxypropylcellulose) (HPC) 106 % of control | dose: 125.0 mg/kg/injection, schedule: Q04DX002 (ip), vehicle: Klucel (hydroxypropylcellulose) (HPC) 114 % of control | dose: 250.0 mg/kg/injection, schedule: Q04DX002 (ip), vehicle: Klucel (hydroxypropylcellulose) (HPC) 95 % of control

O=C(O)C12CCC(CCC1O)C2 (stereo not drawn)
inactive: dose: 75.0 mg/kg/injection, schedule: Q01DX001 (ip), vehicle: other 102 % of control | dose: 150.0 mg/kg/injection, schedule: Q01DX001 (ip), vehicle: other 100 % of control | dose: 300.0 mg/kg/injection, schedule: Q01DX001 (ip), vehicle: other 100 % of control

C/C(=N/Nc1ccc([N+](=O)[O-])cc1[N+](=O)[O-])C(C)(C)C
inactive: dose: 25.0 mg/kg/injection, schedule: Q04DX002 (ip), vehicle: Klucel (hydroxypropylcellulose) (HPC) 87 % of control | dose: 50.0 mg/kg/injection, schedule: Q04DX002 (ip), vehicle: Klucel (hydroxypropylcellulose) (HPC) 93 % of control | dose: 100.0 mg/kg/injection, schedule: Q04DX002 (ip), vehicle: Klucel (hydroxypropylcellulose) (HPC) 101 % of control and 90 % of control | dose: 200.0 mg/kg/injection, schedule: Q04DX002 (ip), vehicle: Klucel (hydroxypropylcellulose) (HPC) 97 % of control | dose: 400.0 mg/kg/injection, schedule: Q04DX002 (ip), vehicle: Klucel (hydroxypropylcellulose) (HPC) 93 % of control

Nc1nc(=O)c2ccccc2s1
inactive: [10] 97 % of control | [16] 101 % of control | [11] 98 % of control | [17] 108 % of control | [12] 97 % of control | dose: 400.0 mg/kg/injection, schedule: Q04DX003 (ip), vehicle: saline with Tween-80 106 % of control

CCOc1ccc(/C=C2\N=C(c3cccc(Cl)c3)OC2=O)cc1
inactive: [18] 93 % of control | [19] 93 % of control | dose: 400.0 mg/kg/injection, schedule: Q04DX002 (ip), vehicle: saline with Tween-80 96 % of control

NC(=O)c1ncn(C2CCCC2O)c1N (stereo not drawn)
inactive: [10] 91 % of control | [11] 102 % of control | [12] 86 % of control

O=C(O)C1C=CCC(C(=O)O)C1 (stereo not drawn)
inactive: [13] 98 % of control | [14] 108 % of control | [15] 95 % of control
